Results from patent US5221665A, “N-substituted amides” (Boehringer Ingelheim Pharmaceuticals, Inc., priority 1991, dated 1993).
In brackets after ≈: the same amount, converted by molar mass.

Legend:
[1] = target: T1, Human sputum elastase (HSE) / Human Leukocyte Elastase (HLE) (Homo sapiens, UniProt P08246); test: Elastase Inhibition--In Vitro Method (hydrolysis of MeO-Suc-Ala-Ala-Pro-Val-pNA, microtiter format); assay type: biochemical; conditions: for % inhib. (5 ug/mL) 0% HSA / % inhib. (5 ug/mL) 0.5% HSA: 5 ug/mL compound; for % inhib. (5 ug/mL) 0.5% HSA: 0.5% HSA added; for IC50: Table I, 0.5 mM substrate, 15 minutes pre-incubation
T1 construct: Human sputum elastase (HSE ) (Elasten Products Co., Pacific, Mo.); purchased Elasten Products Co., Pacific, Mo; host or cells: human sputum
T1 sequence (P08246 30-267): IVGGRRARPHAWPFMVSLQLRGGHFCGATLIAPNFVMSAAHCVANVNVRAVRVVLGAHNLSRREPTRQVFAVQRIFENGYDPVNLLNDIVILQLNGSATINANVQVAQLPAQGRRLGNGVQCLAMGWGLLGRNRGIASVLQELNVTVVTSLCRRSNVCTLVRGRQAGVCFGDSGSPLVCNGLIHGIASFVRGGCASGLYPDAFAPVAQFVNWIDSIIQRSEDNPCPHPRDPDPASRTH

[2] = target: T2, human neutrophil elastase (HNE) (Homo sapiens, UniProt P08246); test: Elastase Inhibition--Animal Model (acute hamster hemorrhage model, HNE instilled i.t.); assay type: in vivo, Syrian Golden Hamsters; conditions: compound 20 ug i.t. three to five minutes before 50 μg HNE i.t., lung lavage hemorrhage at 18 hours
T2 construct: purified preparations of human neutrophil elastase (HNE); purchased Elastin Products Co., Pacific, MO
T2 sequence (P08246 30-247 limits assumed): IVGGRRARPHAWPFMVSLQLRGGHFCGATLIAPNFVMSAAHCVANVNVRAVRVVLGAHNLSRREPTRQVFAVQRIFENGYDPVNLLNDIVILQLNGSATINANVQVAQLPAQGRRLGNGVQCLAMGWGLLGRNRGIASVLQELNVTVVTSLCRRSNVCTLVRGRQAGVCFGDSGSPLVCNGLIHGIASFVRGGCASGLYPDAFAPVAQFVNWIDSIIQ
Description: When instilled into the lungs of hamsters, purified preparations of human neutrophil elastase (HNE) will produce an emphysema like state. Acute challenge (18 hours) with 50 μg of HNE results in pulmonary hemorrhage which can be readily quantitated by measuring total RBC's (red blood count) and hemogloblin concentration of lung lavage samples.
HNE (obtained from Elastin Products Co., Pacific, MO) was diluted to 250 μg/mL in 0.9% sterile saline. Syrian Golden Hamsters, males, weighing approximately 90-130 grams, were obtained from Charles River Laboratories. The experiments described below are conducted using at least three animals per group.
Anesthesia required for the intratracheal administration of compounds and elastase was induced by the i.p. injection of Ketamine hydrochloride, 10 mg/100 gram body weight plus Xylazine, 1 mg/100 gram body weight.
Hamsters were anesthetized as described above and the trachea were surgically exposed. Test compounds were administered via 27g needle inserted directly into the trachea in 0.1 mL volume followed by 0.1 mL saline push. […]
Samples were concentrated by centrifugation (1500 rpm, 10 minutes) and brought up to 1.0 mL in saline. Homoglobin concentration was determined spectrophotometrically (540 nm) by the cyanmethemoglobin method using 200 μL sample to 2.5 mL cranmethoglobin reagent (Data Medical Associates, Arlington, Tx.).

COc1ccc(CCN(CC(=O)NC(C(=O)C(F)(F)F)C(C)C)C(=O)[C@@H](NC(=O)OCc2ccccc2)C(C)C)cc1OC (some centres unmarked) [3,4-Dimethoxyphenethyl; CBZ]
% inhib. (5 ug/mL) 0% HSA [1]: 95.1%
% inhib. (5 ug/mL) 0.5% HSA [1]: 87.8%
IC50 [1]: 0.432 µg/mL (≈ 0.693 µM)

CC(C)C(NC(=O)CN(C(=O)[C@@H](NC(=O)OCc1ccccc1)C(C)C)C1CCCC1)C(=O)C(F)(F)F (some centres unmarked) [Cyclopentyl; CBZ]
% inhib. (5 ug/mL) 0% HSA [1]: 100%
% inhib. (5 ug/mL) 0.5% HSA [1]: 99.4%
IC50 [1]: 0.082 µg/mL (≈ 0.155 µM)

CC(C)C(NC(=O)CN(C(=O)[C@@H](NC(=O)c1ccc(C(=O)NS(=O)(=O)c2ccc(Cl)cc2)cc1)C(C)C)C1CC2CCC1C2)C(=O)C(F)(F)F (stereo partly drawn) [[[4-(4-Chlorophenyl)sulfonylaminocarbonyl]phenyl-1-oxomethyl]-L-Valyl-N-(exo-bicyclo[2,2,1]hept-2-yl)-glycyl-N-[3-(1,1,1-trifluoro-4-methyl-2-oxypentyl)] amide.]
% inhib. (5 ug/mL) 0% HSA [1]: 99.8%
% inhib. (5 ug/mL) 0.5% HSA [1]: 99.5%
IC50 [1]: 0.045 µg/mL (≈ 0.0607 µM)
% inhib. (20 ug, i.t.) [2]: 93.8%

COc1ccc(CCN(CC(=O)NC(C(=O)C(F)(F)F)C(C)C)C(=O)[C@@H](NC(=O)c2ccc(C(=O)NS(=O)(=O)c3ccc(Cl)cc3)cc2)C(C)C)cc1OC (stereo partly drawn) [[[4-(4-Chlorophenylsulfonylaminocarbonyl]phenyl-1-oxomethyl]-L-Valyl-N-2-(3 , 4-dimethoxy)phenethyl] glycyl-N-[3-(1,1,1-trifluoro-4-methyl-2-oxypentyl)] amide]
% inhib. (5 ug/mL) 0% HSA [1]: 98.8%
% inhib. (5 ug/mL) 0.5% HSA [1]: 96.3%
IC50 [1]: 0.0838 µg/mL (≈ 0.103 µM)
% inhib. (20 ug, i.t.) [2]: 90.2%
